Laboratory results as given in ChEMBL document CHEMBL1136469, “Non-peptide alpha(v)beta(3) antagonists: identification of potent, chain-shortened RGD mimetics that incorporate a central pyrrolidinone constraint” (Bioorg Med Chem Lett, 2003).

Legend:
[1] = physchem; details: octanol/water
Description: Partition coefficient (logP)

[2] = molecular target: Integrin alpha-V/beta-3 (Homo sapiens, UniProt P05106+P06756)
Description: Displacement of [125I]-labeled nonpeptide from purified recombinant human alphaV-beta3 integrin

[3] = in vivo; details: dog, po
Description: Oral bioavailability in dog

[4] = in vivo; details: dog, plasma
Description: Plasma clearance was measured in dog

[5] = in vivo; details: dog
Description: Half-life was measured in dog

Chain of Integrin alpha-V/beta-3 (P05106 27-788 limits assumed): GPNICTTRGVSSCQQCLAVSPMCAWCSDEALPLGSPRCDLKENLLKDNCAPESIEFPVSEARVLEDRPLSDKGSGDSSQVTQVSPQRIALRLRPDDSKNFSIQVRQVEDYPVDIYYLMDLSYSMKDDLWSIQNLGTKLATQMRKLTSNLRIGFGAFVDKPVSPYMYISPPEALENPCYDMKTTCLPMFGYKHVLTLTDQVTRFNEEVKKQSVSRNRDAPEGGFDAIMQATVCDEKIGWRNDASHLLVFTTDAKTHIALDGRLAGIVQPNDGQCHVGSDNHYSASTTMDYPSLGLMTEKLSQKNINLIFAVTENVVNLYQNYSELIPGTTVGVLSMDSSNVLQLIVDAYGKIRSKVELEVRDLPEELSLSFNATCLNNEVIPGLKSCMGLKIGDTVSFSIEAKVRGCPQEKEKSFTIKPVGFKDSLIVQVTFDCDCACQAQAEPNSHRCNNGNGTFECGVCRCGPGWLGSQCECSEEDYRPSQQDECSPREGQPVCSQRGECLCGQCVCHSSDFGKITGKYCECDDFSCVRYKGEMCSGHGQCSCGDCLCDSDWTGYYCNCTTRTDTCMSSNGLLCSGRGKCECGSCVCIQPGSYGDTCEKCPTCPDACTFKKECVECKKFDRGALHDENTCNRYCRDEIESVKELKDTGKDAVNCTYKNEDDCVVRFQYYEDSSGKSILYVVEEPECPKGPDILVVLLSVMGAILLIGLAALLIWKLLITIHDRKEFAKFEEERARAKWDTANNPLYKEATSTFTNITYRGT
Chain of Integrin alpha-V/beta-3 (P06756 31-889 limits assumed): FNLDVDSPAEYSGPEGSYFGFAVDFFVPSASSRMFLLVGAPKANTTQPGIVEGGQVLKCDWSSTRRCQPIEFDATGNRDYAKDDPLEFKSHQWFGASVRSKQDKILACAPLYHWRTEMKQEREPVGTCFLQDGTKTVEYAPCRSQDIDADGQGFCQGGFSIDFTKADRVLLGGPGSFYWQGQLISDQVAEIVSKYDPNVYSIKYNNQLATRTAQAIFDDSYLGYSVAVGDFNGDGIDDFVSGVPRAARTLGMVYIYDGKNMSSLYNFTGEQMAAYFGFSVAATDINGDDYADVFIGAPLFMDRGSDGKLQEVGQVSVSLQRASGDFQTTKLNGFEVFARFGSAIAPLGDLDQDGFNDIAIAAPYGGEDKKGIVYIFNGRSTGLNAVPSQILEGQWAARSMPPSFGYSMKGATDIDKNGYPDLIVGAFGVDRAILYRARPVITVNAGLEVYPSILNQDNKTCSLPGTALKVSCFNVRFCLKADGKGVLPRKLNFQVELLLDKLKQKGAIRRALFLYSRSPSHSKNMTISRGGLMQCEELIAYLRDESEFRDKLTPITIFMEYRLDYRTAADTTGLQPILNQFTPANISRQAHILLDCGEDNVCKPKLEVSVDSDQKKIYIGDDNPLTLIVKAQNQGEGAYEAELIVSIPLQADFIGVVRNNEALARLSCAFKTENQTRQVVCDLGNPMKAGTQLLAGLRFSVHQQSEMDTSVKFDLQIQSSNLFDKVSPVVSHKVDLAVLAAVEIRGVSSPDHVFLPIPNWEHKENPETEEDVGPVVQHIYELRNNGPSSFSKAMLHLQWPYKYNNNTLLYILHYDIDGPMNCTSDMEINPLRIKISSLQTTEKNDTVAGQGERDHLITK
Chain of Integrin alpha-V/beta-3 (P06756 891-1048 limits assumed): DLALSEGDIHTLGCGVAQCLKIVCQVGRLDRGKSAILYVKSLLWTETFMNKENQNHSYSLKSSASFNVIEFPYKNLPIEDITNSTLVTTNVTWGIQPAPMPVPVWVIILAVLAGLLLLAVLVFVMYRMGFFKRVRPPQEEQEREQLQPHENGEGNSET

logP [1]	IC50 [2] [nM]	bioavailability [3] [%]	clearance [4] [mL/min/kg]	half-life [5] [h]	Compound
0.77	–	–	–	–	O=C(O)C[C@H](NC(=O)CCCCc1ccc2c(n1)NCCC2)c1cnc2ccccc2c1
0.88	0.39	52	2.1	8	O=C(O)C[C@@H](c1ccc2c(c1)OCC2)N1CC[C@@H](CCCc2ccc3c(n2)NCCC3)C1=O
-0.12	0.22	11.5	22.9	1.5	O=C(O)C[C@@H](c1ccc2c(c1)OCC2)N1CC[C@H](CCCc2ccc3c(n2)NCCC3)C1=O
